ChEMBL document CHEMBL1201862, “PubChem BioAssay data set” (2004)
Several values for one entry are separate records, joined by “and”; a condition that tells them apart may be missing. Equal values may be shown once. Activity calls are given as the source filed them.

Experiments:
[1] = molecular target: T1, Replicative DNA helicase DnaB (Mycobacterium tuberculosis, UniProt P9WMR3); assay: DnaB intein splicing inhibitors, dose response, biochemical, cell-free fluorescence (AID 449749); type: functional
T1 sequence (P9WMR3 whole entry): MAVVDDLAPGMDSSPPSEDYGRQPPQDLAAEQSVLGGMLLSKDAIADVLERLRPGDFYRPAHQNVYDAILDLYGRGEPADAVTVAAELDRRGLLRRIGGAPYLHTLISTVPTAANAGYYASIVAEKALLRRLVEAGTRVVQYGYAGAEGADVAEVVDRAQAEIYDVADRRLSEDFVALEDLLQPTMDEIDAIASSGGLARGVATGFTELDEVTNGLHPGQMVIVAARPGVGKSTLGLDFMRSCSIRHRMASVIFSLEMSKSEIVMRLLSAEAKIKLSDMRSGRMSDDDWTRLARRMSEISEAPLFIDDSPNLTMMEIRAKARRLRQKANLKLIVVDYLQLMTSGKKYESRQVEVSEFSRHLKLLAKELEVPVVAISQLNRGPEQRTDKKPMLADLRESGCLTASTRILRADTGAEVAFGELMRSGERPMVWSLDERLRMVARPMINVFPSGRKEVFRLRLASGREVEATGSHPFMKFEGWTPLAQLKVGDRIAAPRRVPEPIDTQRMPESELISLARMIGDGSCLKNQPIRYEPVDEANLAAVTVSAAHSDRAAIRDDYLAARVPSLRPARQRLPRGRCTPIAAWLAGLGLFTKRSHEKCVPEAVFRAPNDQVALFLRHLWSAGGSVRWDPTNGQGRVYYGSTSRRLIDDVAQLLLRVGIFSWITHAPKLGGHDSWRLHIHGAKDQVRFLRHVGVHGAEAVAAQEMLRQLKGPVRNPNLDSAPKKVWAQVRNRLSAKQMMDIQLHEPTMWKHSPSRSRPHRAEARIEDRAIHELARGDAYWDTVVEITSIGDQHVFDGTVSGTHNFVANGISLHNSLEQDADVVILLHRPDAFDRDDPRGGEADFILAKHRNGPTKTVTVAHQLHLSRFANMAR

[2] = molecular target: T2, Protein RecA (Mycobacterium tuberculosis, UniProt P9WHJ3); assay: Fluorescence Cell-Free Homogeneous Dose Retest to Identify Inhibitors of RecA-Intein Splicing Activity. [Related pubchem assays (depositor defined):AID2097, AID2223, AID489010, AID492950]; type: functional
T2 sequence (P9WHJ3 whole entry): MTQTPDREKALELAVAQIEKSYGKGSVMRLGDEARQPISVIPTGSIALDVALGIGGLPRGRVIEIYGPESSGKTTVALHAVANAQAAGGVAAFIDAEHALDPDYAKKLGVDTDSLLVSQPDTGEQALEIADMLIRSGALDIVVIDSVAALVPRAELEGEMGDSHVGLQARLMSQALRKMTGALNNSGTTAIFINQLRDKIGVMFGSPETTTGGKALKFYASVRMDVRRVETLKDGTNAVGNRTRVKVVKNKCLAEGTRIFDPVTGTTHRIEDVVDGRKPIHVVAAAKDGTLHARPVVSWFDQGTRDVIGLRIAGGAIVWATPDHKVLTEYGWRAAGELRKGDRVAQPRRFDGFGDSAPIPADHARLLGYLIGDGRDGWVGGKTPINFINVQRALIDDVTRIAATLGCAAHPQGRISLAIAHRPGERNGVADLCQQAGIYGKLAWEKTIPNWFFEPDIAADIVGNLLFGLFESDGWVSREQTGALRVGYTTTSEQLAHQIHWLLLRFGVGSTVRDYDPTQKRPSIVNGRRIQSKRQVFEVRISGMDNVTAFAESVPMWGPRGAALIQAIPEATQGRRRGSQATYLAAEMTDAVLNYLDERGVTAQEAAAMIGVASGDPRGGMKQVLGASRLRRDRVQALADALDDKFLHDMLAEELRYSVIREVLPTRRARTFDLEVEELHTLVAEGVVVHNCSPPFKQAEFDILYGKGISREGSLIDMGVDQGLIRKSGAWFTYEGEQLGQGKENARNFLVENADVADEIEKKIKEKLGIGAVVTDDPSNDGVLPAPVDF

[3] = molecular target: Cytochrome P450 2C19 (Homo sapiens, UniProt P33261); assay: Cytochrome panel assay with activity outcomes. Panel member name: p450-cyp2c19 Compounds with AC50 equal or less than 10 uM are considered active; type: functional
[4] = molecular target: Cytochrome P450 3A4 (Homo sapiens, UniProt P08684);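 further: CYP3A4 tested as one member of a cytochrome P450 panel screen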
[5] = molecular target: T3, Cytochrome P450 1A2 (Homo sapiens, UniProt P05177);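 further: PubChem cytochrome P450 panel assay, CYP1A2 panel member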
T3 sequence (P05177 whole entry): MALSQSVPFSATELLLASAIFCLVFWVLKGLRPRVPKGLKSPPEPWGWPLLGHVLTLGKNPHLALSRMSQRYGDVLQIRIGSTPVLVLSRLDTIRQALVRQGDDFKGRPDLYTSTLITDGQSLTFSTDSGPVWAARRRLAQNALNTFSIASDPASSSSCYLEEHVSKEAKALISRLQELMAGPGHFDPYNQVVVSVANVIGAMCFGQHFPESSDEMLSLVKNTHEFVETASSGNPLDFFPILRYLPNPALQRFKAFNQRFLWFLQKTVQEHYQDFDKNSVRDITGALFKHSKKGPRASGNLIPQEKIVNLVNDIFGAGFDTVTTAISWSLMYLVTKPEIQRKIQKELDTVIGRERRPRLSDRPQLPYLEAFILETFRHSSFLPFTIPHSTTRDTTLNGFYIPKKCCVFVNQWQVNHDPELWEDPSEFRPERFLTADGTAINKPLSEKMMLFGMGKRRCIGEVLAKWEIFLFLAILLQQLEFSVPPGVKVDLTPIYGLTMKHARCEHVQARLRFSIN

[6] = test system: Streptococcus sp. 'group A'; assay: growth inhibition of control SK(-) GAS strain, dose response, counter-screen for streptokinase expression inhibitor project, luminescence, kanamycin, BacTiterGlo, confirmation (AID 1900); type: functional, organism-based
[7] = test system: Streptococcus; assay: Group A Streptococcus viability loss, dose response, counter-screen for streptokinase expression inhibitor project, luminescence, BacTiterGlo (AID 1915); type: functional, organism-based;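 further: potency for reduction of bacterial viability or growth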

Cytochrome P450 2C19, sequence (P33261 whole entry): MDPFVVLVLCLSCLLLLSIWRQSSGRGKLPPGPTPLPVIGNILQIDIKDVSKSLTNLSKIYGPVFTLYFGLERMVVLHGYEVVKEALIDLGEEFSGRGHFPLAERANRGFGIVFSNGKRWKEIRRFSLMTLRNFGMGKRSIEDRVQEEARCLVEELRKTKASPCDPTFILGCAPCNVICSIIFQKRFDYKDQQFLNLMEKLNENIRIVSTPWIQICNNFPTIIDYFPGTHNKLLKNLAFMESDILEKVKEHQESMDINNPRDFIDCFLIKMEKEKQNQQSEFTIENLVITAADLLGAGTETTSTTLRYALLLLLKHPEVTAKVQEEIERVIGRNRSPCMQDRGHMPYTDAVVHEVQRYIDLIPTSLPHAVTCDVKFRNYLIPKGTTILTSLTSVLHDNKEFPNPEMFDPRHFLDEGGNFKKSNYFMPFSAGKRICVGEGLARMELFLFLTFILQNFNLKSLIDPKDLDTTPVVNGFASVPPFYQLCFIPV
Cytochrome P450 3A4, sequence (P08684 whole entry): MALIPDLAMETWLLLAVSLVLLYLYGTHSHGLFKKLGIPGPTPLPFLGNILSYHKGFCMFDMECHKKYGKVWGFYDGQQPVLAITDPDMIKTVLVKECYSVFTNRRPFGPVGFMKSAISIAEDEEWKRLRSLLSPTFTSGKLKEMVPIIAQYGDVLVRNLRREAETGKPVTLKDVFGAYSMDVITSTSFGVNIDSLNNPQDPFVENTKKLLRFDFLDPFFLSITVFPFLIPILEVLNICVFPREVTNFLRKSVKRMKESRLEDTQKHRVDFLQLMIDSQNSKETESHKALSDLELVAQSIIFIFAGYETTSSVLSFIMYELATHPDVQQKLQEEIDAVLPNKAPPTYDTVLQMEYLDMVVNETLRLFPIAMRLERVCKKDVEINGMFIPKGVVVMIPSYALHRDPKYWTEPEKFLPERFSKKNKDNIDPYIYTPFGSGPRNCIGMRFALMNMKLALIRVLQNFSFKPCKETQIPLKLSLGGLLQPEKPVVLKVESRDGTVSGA

Compound: Nc1ccccc1S(=O)(=O)NC1=NCCCCC1
- AC50 [1]: > 380 µM (inactive)
- EC50 [2]: > 380 µM (inactive)

Compound: O=c1c(-c2ccc(Cl)cc2)nc2cncnc2n1Cc1ccccc1
- AC50 ([3]; read-out: AC50): 25.1 µM (inconclusive)
- AC50 [4]: 10 µM (inconclusive)

Compound: COc1ccc(-n2c(=O)c(C)nc3cnc(N4CCOCC4)nc32)cc1
- AC50 [4]: 31.6 µM (inconclusive)

Compound: CN(C)c1ncc2nc(-c3cc(F)cc(F)c3)c(=O)n(C[C@H]3CCCO3)c2n1
- AC50 [5]: 0.0794 µM (inconclusive)

Compound: CC(C)C12CN3CC(C(C)C)(CN(C1)C3c1ccco1)C2=O (configuration not stated)
- AC50 ([3]; read-out: AC50): 28.2 µM (inconclusive)

Compound: COc1ccc(CC(=O)O/N=C(\N)Cc2ccc(OC)cc2)cc1
- AC50 ([3]; read-out: AC50): 14.1 µM (inconclusive)

Compound: CC(Oc1ccccc1)C(=O)Nc1nc2c(s1)C(=O)CC(C)(C)C2 (configuration not stated)
- AC50 [5]: 15.8 µM (inconclusive)

Compound: CCCc1nc2ccccc2c(=O)n1/N=C/c1c(C)nn(-c2ccc(C)cc2)c1O
- EC50 [6]: 2.87 µM (active)
- EC50 [7]: 9.16 µM (active)

Compound: O=c1cc(N2CCC(Cc3ccccc3)CC2)[nH]c(=O)n1C1CCCCC1
- AC50 [4]: 3.55 µM (inconclusive)

Compound: SC1=NCCC12C(S)=Nc1ccccc12 (configuration not stated)
- AC50 [1]: > 380 µM (inactive)
- EC50 [2]: > 380 µM (inactive)

Compound: CC(=O)C(Sc1ncnc2c1nnn2-c1ccc(F)cc1)C(=O)N(C)C (configuration not stated)
- AC50 [1]: 21.8 µM (active)
- EC50 [2]: 15.7 µM (active)

Compound: COC(=O)COc1ccsc1C(=O)OC
- AC50 [5]: 28.2 µM (inconclusive)

Compound: OC[C@@H]1O[C@@H](n2cnc3c(NC4CCCCC4)ncnc32)[C@@H](O)[C@H]1O
- AC50 ([3]; read-out: AC50): 0.0251 µM (inconclusive)

Compound: O=C(C1CC(=O)N(C2CCCC2)C1)N1CCC2(CC1)OCCO2 (configuration not stated)
- AC50 ([3]; read-out: AC50): 39.8 µM (inconclusive)

Compound: COc1ccc(-n2c(=O)cnc3cnc(OC)nc32)cc1
- AC50 [5]: 20 µM (inconclusive)

Compound: C/C(CC(=O)Nc1ccccn1)=N\NC(=O)c1ccc(C)cc1
- AC50 [1]: 20.4 µM (active)
- EC50 [2]: 8.84 µM (active)

Compound: O=C1[C@H]2O[C@@H]2[C@@H](O)[C@H]2[C@H]1CCn1c(=O)n(Cc3cc4c(cc3Cl)OCO4)c(=O)n12
- AC50 [4]: 3.16 µM (inconclusive)

Compound: Cc1cc(NC(=O)C2CCCC2)n(-c2nc3ccccc3[nH]2)n1
- AC50 ([3]; read-out: AC50): 10 µM (inconclusive)

Compound: CC(C)(C)n1nc2c(c1NC(=O)c1ccc(S(=O)(=O)N3CCCCC3)cc1)C[S+]([O-])C2 (configuration not stated)
- AC50 ([3]; read-out: AC50): 25.1 µM (inconclusive)
- AC50 [4]: 14.1 µM (inconclusive)

Compound: O=C(O)COc1ccc(/C=C2/SC(=S)N(Cc3ccccc3)C2=O)cc1
- AC50 [1]: 13.7 µM (active)
- EC50 [2]: 8.33 µM (active)

Compound: COCCn1c(=O)c(-c2cc(F)cc(F)c2)nc2cnc(N3CCOCC3)nc21
- AC50 [5]: 12.6 µM (inconclusive)

Compound: O=C(Cc1cc(O)n[nH]1)N/N=C/c1cccc(Cl)c1Cl
- AC50 [1]: 4.36 µM (active) and 2.36 µM (active)
- EC50 [2]: 1.51 µM (active) and 1.71 µM (active)

Compound: COCCNc1nc(-c2cccc(NS(C)(=O)=O)c2)nc2ccccc12
- AC50 ([3]; read-out: AC50): 39.8 µM (inconclusive)

Compound: CCOc1ccc(-c2[nH]nc3c2C(c2ccc(O)cc2)C(C#N)=C(N)O3)cc1 (configuration not stated)
- AC50 [1]: 4.62 µM (active)
- EC50 [2]: 1.75 µM (active)

Compound: Cn1c(-c2ccc3c(c2)OCO3)cc(=O)c2ccccc21 [GRAVEOLINE]
- AC50 ([3]; read-out: AC50): 2 µM (inconclusive)

Compound: Cc1ccc(-c2nc(CN3CCCC(C(=O)N4CCOCC4)C3)c(C)o2)cc1 (configuration not stated)
- AC50 [1]: > 380 µM (inactive)
- EC50 [2]: > 380 µM (inactive)

Compound: CC(C)C(O)(C(C)C)C(C)C
- AC50 [3]: inconclusive

Compound: C[C@](N)(C(=O)O)c1ccc(-c2nnn[nH]2)cc1
- AC50 ([3]; read-out: AC50): 7.94 µM (inconclusive)
- AC50 [5]: 39.8 µM (inconclusive)

Compound: COc1ccc(Oc2ncc3ncc(=O)n(C)c3n2)cc1
- AC50 ([3]; read-out: AC50): 31.6 µM (inconclusive)
- AC50 [4]: 25.1 µM (inconclusive)

Compound: CC(=O)NCCNc1ncnc2ccc(-c3c(C)noc3C)cc12
- AC50 [4]: 25.1 µM (inconclusive)

Compound: Cc1noc(C)c1C(=O)N1CCC[C@@]2(CCN(C(=O)Nc3ccccc3)C2)C1
- AC50 [5]: 39.8 µM (inconclusive)

Compound: N#Cc1ncc(-c2ccc3c(c2)OCCOCCOCCOCCO3)nc1C#N
- EC50 [2]: 8.97 µM (active)

Compound: CC1=NNC(=O)C1Oc1ccccc1 (configuration not stated)
- AC50 [1]: 0.737 µM (active)
- EC50 [2]: 0.57 µM (active)

Compound: Cc1ccc(OCC(=O)NNC(=O)c2cccnc2)cc1
- AC50 ([3]; read-out: AC50): 3.16 µM (inconclusive)
- AC50 [4]: 25.1 µM (inconclusive)

Compound: COc1cccc(Cn2c(=O)cnc3cnc(Oc4ccccc4)nc32)c1
- AC50 ([3]; read-out: AC50): 5.01 µM (inconclusive)

Compound: C#CCCCO/N=C1/C[C@@H](O)[C@@H](O)[C@@H]2[C@@H]3C(=O)N(CCC(=O)OCC)C(=O)[C@H]3CC[C@H]12
- AC50 [4]: 5.01 µM (inconclusive)

Compound: C[C@@H](C(=O)Nc1ccc2ccccc2c1)[C@@H]1C[C@@]1(C)[C@@H](NC(=O)c1cnccn1)c1ccccc1
- AC50 [5]: 12.6 µM (inconclusive)

Compound: COC(=O)C/C=C\[C@@H](C)[C@@H](/C=N\O[C@@H](C)c1cn([C@H]2COC[C@H]2O)nn1)OC
- AC50 [3]: inconclusive

Compound: Cc1noc(C)c1C(=O)N1CCC2(CCCN(c3ccccn3)C2)CC1
- AC50 [4]: 20 µM (inconclusive)

Compound: O=C(NC(=S)Nc1nc(-c2ccc(Br)cc2)cs1)c1cccnc1
- AC50 [5]: 3.55 µM (inconclusive)

Compound: COc1cccc(Nc2ncc3nc(-c4ccc(Cl)cc4)c(=O)n(CCC#N)c3n2)c1
- AC50 [5]: 5.01 µM (inconclusive)
- AC50 [4]: 2 µM (inconclusive)
